According to PubChem BioAssay (NCI):
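A five-concentration, 48-hour dose response in 96-well plates underlies each endpoint, interpolated linearly between surrounding concentrations. At the TGI there is no net growth.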

Key:
Assay in all cases: inhibition of tumour cell growth, NCI panel, 48 h
[1] = test system: OVCAR-4 ovarian
[2] = test system: HOP-92 NSCLC
[3] = test system: TK-10 renal
[4] = test system: MOLT-4 leukemia
[5] = test system: NCI-H23 lung
[6] = test system: SK-MEL-2 melanoma
[7] = test system: SF-539 CNS
[8] = test system: OVCAR-3 ovarian
[9] = test system: LOX IMVI melanoma
[10] = test system: HCT-15 colon
[11] = test system: HL-60(TB) leukemia

| Compound | TGI [1] [µM] | TGI [2] [µM] | TGI [3] [µM] | TGI [4] [µM] | TGI [5] [µM] | TGI [6] [µM] | TGI [7] [µM] | TGI [8] [µM] | TGI [9] [µM] | TGI [10] [µM] | TGI [11] [µM] |
| --- | --- | --- | --- | --- | --- | --- | --- | --- | --- | --- | --- |
| CCCNC(=S)/N=C\c1c(O)c2ccccc2oc1=O | > 100 | > 100 | > 100 | > 100 | > 100 | > 100 | > 100 | > 100 | > 100 | > 100 | > 100 |
| CC1OC(O[C@H]2CC[C@]3(C)[C@H]4CC=C5[C@@H]6[C@@H](C)[C@H](C)CC[C@]6(C(=O)O)CC[C@@]5(C(=O)O)[C@]4(C)CC[C@H]3C2(C)C)C(O)C(O)C1O (some centres not stated) | > 75 | > 75 | > 75 | > 75 | > 75 | > 75 | > 75 | > 75 | > 75 | > 75 | > 75 |
| CN(C)CCNc1ccc2c(=O)n(CCN(C)C)c(=O)n3c4ccc(N)cc4c(=O)c1c23 | 0.996 | 0.87 | 6.13 | 0.161 | 0.215 | 0.496 | 0.482 | 1.22 | 0.283 | 1.08 | 0.278 |
| O=C1CCC2SC1CCC2=O | > 100 | > 100 | > 100 | > 100 | > 100 | > 100 | > 100 | > 100 | > 100 | > 100 | > 100 |
| c1ccc(CCN(Cc2nc3ccccc3[nH]2)Cc2nc3ccccc3[nH]2)cc1 | 68.9 | 30.7 | 35.7 | 39.3 | 37.9 | 36.6 | 38.9 | 48.5 | 23.1 | 22.1 | 7.8 |
| O=C(Nc1nc(C23CC4CC(CC(C4)C2)C3)cs1)c1cc2cc(Br)cc(Br)c2oc1=O | > 100 | > 100 | > 100 | > 100 | > 100 | > 100 | > 100 | > 100 | > 100 | > 100 | > 100 |
| CC1(C)C(=O)N=C(N)N1C(=O)OCc1ccccc1 | > 100 | > 100 | > 100 | > 100 | > 100 | > 100 | > 100 | > 100 | > 100 | > 100 | > 100 |
| O=[N+]([O-])c1cccc2nccc(NCC(O)CO)c12 (configuration not stated) | 43 | 53.8 | 44 | > 80.6 | 43.1 | 26 | 36.9 | 33.7 | 54.7 | 22.4 | 49.4 |
| CCCCc1c2c(nc3c1CCC/C3=C\c1ccccc1)C(=O)C(CN(C)C)CC2 (configuration not stated) | 22.9 | 33.5 | 29.6 | 11.5 | 31.8 | 39.4 | 36.5 | 39.9 | 30.9 | 20.7 | 18.2 |
| COc1cc2cc(C(=O)N3CC(CCl)c4ccc(NCCN)cc43)[nH]c2c(OC)c1OC (configuration not stated) | 3.06 | 4 | 6.08 | 0.356 | 1.23 | 0.408 | 1.41 | 0.579 | 0.881 | 4.33 | 0.226 |
| CCOC(=O)c1ccc(C(=O)/C(C#N)=C2\CCCN2)[nH]1 | > 100 | > 100 | – | > 100 | > 100 | > 100 | > 100 | > 100 | > 100 | > 100 | > 100 |
| COC(=O)C1(O)c2ccccc2N=C2C(=O)c3ccccc3N21 (configuration not stated) | > 100 | > 100 | > 100 | > 100 | > 100 | > 100 | > 100 | > 100 | > 100 | > 100 | > 100 |
| C=C(C)[C@@H]1CC[C@]2(C(=O)O)CC[C@]3(C)[C@H](CC[C@@H]4[C@@]5(C)CC[C@H](C(=O)/C=C/c6ccc(O)cc6)C(C)(C)[C@@H]5CC[C@]43C)[C@@H]12 | 72.4 | 29.2 | 20.9 | 51.6 | 20.8 | 46.8 | 20.3 | 10.3 | 22.4 | 17.3 | 12.7 |
| O=S1(=O)CCN(Cc2ccccc2)/C1=N\S(=O)(=O)c1ccc(Cl)cc1 | 36.2 | 35.3 | 31 | 49.9 | 35.3 | 53.3 | 36.1 | 36.1 | 33.5 | 37 | 65.9 |
| C=C1C(=O)C23CC1C[C@H](OC(C)=O)C2C1(C)C(OC(C)=O)C[C@H](O)C(C)(C)[C@H]1C(O)[C@@H]3OC(C)=O (some centres not stated) | 25.7 | 24.8 | 17 | 8.64 | 26.8 | 29.7 | 7.54 | 19.1 | 30.3 | 25.7 | 6.11 |
| CCCCCCCCCCCCCCCCP(=O)(O)OP(=O)(O)OCC1OC(n2cnc3c(N)ncnc32)C(O)C1O (configuration not stated) | > 100 | 42 | 34.3 | 76.4 | 68.2 | > 100 | 43.5 | 88.1 | 70.5 | 59.4 | > 100 |
| CCOC(=O)c1c(NC(=O)Nc2ccccc2)c(C(N)=O)c2n1CCCCC2 | > 100 | > 100 | > 100 | > 100 | > 100 | > 100 | > 100 | – | > 100 | > 100 | > 100 |
| CCC1(N=[N+]=[N-])C(=O)Nc2cc(C)ccc2C1=O (configuration not stated) | > 100 | > 100 | > 100 | > 100 | > 100 | > 100 | > 100 | > 100 | > 100 | > 100 | 53.6 |
| CC1NC(/C(=C/c2ccccc2O)NC(=O)c2ccccc2)OC1=O (configuration not stated) | > 50 | 46.6 | > 50 | > 50 | > 50 | > 50 | 48 | > 50 | > 50 | > 50 | > 50 |
